According to publication PMC6355875 (Scientific Reports, 2019):
pEC50: −log10 of the molar value.

Experiments:
Format in all cases: cell-based
hPPAR-α = target: T1, hPPAR-α (Homo sapiens, UniProt Q07869); test: GAL4-DBD hPPARα/LBD luciferase reporter assay in HEK293T cells; details: activation, overnight
T1 construct: expressed in transfected cells; host or cells: HEK293T
T1 sequence (Q07869 175-468): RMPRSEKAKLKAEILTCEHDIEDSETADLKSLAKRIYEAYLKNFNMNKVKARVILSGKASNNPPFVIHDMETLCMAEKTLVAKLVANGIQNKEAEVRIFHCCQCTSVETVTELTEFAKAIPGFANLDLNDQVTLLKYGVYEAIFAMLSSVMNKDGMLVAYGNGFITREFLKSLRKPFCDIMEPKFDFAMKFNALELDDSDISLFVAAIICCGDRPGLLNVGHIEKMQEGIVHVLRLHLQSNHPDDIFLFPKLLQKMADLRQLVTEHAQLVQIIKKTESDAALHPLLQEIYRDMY
Protocol: (§1) A GAL4-DNA Binding Domain (GAL4-DBD) fusion protein was constructed for each PPAR family member. To assess compound activity, each construct was co-transfected into HEK293T cells (American Type Culture Collection; Manassass, VA) along with the reporter construct, pGL5 (Promega) using Fugene 6 (Promega) as a transfection reagent and the manufacturer’s protocol. An eleven point dilution series of each compound was added to the cells and incubated overnight. Luciferase levels were then determined following the addition of Bright-Glo (Promega) using the manufacturer’s recommendations.

hPPAR-γ = target: T2, hPPAR-γ (Homo sapiens, UniProt P37231); test: GAL4-DBD hPPARγ/LBD luciferase reporter assay in HEK293T cells; details: activation, overnight
T2 construct: expressed in transfected cells; host or cells: HEK293T
T2 sequence (P37231 184-477 isoform P37231-2): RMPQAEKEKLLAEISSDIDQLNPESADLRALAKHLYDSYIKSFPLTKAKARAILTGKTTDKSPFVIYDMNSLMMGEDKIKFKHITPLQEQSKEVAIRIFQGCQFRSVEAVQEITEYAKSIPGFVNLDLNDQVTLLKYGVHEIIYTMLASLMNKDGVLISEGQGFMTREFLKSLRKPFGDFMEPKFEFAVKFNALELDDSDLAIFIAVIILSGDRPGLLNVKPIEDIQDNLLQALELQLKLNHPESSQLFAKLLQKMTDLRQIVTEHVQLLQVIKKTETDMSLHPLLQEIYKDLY
Protocol: as §1

hPPAR-δ = target: T3, hPPAR-δ (Homo sapiens, UniProt Q03181); test: GAL4-DBD hPPARδ/LBD luciferase reporter assay in HEK293T cells; details: for pEC50: activation, HEK293T reporter, overnight; for hPPAR subtype profile: from EC50 on hPPAR-δ, -α, -γ
T3 construct: expressed in transfected cells; host or cells: HEK293T
T3 sequence (Q03181 147-441): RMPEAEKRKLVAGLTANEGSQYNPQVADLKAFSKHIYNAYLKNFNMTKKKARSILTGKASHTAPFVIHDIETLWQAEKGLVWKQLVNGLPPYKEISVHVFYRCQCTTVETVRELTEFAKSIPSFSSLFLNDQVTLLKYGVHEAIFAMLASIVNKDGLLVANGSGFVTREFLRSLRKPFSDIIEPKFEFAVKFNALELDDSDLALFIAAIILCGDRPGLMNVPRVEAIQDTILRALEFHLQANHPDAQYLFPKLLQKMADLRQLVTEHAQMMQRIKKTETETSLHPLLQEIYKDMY
Protocol: as §1

Row | Compound | pEC50 (hPPAR-α) | pEC50 (hPPAR-γ) | pEC50 (hPPAR-δ) | hPPAR subtype profile (hPPAR-δ)
1 | Cc1cccc(OCCNC(=O)COc2ccc(CC(=O)O)cc2)c1 [GNF-0242, CC1=CC=CC(OCCNC(=O)COC2=CC=C(CC(O)=O)C=C2)=C1] | < 5.00 | < 5.00 | – | –
2 | O=C(COc1ccc(C(=O)O)cc1)NC(c1ccccc1)c1ccc(Cl)cc1 (centres unmarked) [GNF-0248, OC(=O)C1=CC=C(OCC(=O)NC(C2=CC=CC=C2)C2=CC=C(Cl)C=C2)C=C1] | 5.15 | < 5.00 | 5.12 | –
3 | Cc1ccc(C(=O)Nc2cccc(CNCc3ccc(OC(F)(F)F)cc3)c2)cc1 [GNF-0341, CC1=CC=C(C=C1)C(=O)NC1=CC=CC(CNCC2=CC=C(OC(F)(F)F)C=C2)=C1] | < 5.00 | 5.90 | 7.96 | agonists of hPPAR-δ and hPPAR-γ only
4 | O=C(O)Cc1csc(SCc2cc(F)cc3c2OC(c2ccccc2)OC3)n1 (centres unmarked) [GNF-1051, OC(=O)CC1=CSC(SCC2=CC(F)=CC3=C2OC(OC3)C2=CC=CC=C2)=N1] | 5.13 | < 5.00 | 5.11 | –
5 | CCCOc1c(/C=C/C(=O)c2ccc(SCC(=O)O)c(OC)c2)cccc1OCC [GNF-1676, CCCOC1=C(OCC)C=CC=C1C=CC(=O)C1=CC=C(SCC(O)=O)C(OC)=C1] | 5.21 | 5.89 | 5.08 | –
6 | O=C(NCc1ccc(COCC(F)(F)F)cc1)c1cc(-c2ccccc2)[nH]n1 [GNF-3632, FC(F)(F)COCC1=CC=C(CNC(=O)C2=NNC(=C2)C2=CC=CC=C2)C=C1] | 5.26 | < 5.00 | 8.15 | agonists of hPPAR-δ and hPPAR-α only
7 | CCOc1cc(/C=C/C(=O)O)ccc1OCc1ccc(C(C)(C)C)cc1 [GNF-4516, CCOC1=CC(C=CC(O)=O)=CC=C1OCC1=CC=C(C=C1)C(C)(C)C] | 5.63 | < 5.00 | 5.17 | –
8 | COc1ccc(C(=O)/C=C/c2c(C)nn(-c3ccccc3)c2Cl)cc1CSCC(=O)O [GNF-4909, COC1=CC=C(C=C1CSCC(O)=O)C(=O)C=CC1=C(Cl)N(N=C1C)C1=CC=CC=C1] | 6.08 | 5.74 | 5.08 | –
9 | COCCCn1c(SCc2cccc(C(=O)O)c2)nc2sc3c(c2c1=O)CCCS3 [GNF-5154, COCCCN1C(=O)C2=C(SC3=C2CCCS3)N=C1SCC1=CC=CC(=C1)C(O)=O] | – | – | 5.15 | –
10 | COc1cc(/C=C2/S/C(=N/c3ccccc3)NC2=O)ccc1OCc1cccc(C(=O)O)c1 [GNF-5758, COC1=CC(C=C2SC(NC2=O)=NC2=CC=CC=C2)=CC=C1OCC1=CC=CC(=C1)C(O)=O] | 5.16 | 5.01 | 5.36 | –
11 | O=C(Nc1ccccc1O)C1CCN(C(=O)COc2ccc(F)cc2)CC1 [GNF-5891, OC1=CC=CC=C1NC(=O)C1CCN(CC1)C(=O)COC1=CC=C(F)C=C1] | < 5.00 | 5.14 | 7.89 | –
12 | O=C(Nc1cccc(CNCC(c2cccs2)N2CCOCC2)c1)c1ccc(Cl)cc1 (centres unmarked) [GNF-6029, ClC1=CC=C(C=C1)C(=O)NC1=CC=CC(CNCC(N2CCOCC2)C2=CC=CS2)=C1] | < 5.00 | < 5.00 | 7.92 | –
13 | CCOc1cccc(/C=N/c2cccc(-c3csc(/N=C/c4cccc(OCC)c4O)n3)c2)c1O [GNF-6878, CCOC1=CC=CC(C=NC2=NC(=CS2)C2=CC=CC(=C2)N=CC2=CC=CC(OCC)=C2O)=C1O] | < 5.00 | < 5.00 | 8.10 | –
14 | O=C(OCC(=O)c1ccc(O)cc1O)c1ccc(COc2ccc3ccccc3c2)o1 [GNF-6928, OC1=CC=C(C(=O)COC(=O)C2=CC=C(COC3=CC=C4C=CC=CC4=C3)O2)C(O)=C1] | 5.16 | 5.42 | 5.43 | –
15 | COc1cc(CNCc2cc(C)on2)ccc1OCC(=O)Nc1ccc(Br)cc1 [GNF-6952, COC1=CC(CNCC2=NOC(C)=C2)=CC=C1OCC(=O)NC1=CC=C(Br)C=C1] | 5.12 | < 5.00 | 7.72 | agonists of hPPAR-δ and hPPAR-α only
16 | O=C(NCCCCOc1ccc(F)cc1)c1ccc([N+](=O)[O-])c(O)c1 [GNF-7176, OC1=CC(=CC=C1[N+]([O-])=O)C(=O)NCCCCOC1=CC=C(F)C=C1] | < 5.00 | < 5.00 | 5.14 | –
17 | COc1ccc(N2CCN(C(=O)CSc3nnc(COc4ccc(Cl)cc4C)[nH]3)CC2)cc1 [GNF-7486, COC1=CC=C(C=C1)N1CCN(CC1)C(=O)CSC1=NN=C(COC2=CC=C(Cl)C=C2C)N1] | < 5.00 | < 5.00 | 7.74 | –
18 | COc1ccc(CNCc2ccc(Oc3cccnc3)c(F)c2)cc1O [GNF-8065, COC1=CC=C(CNCC2=CC=C(OC3=CC=CN=C3)C(F)=C2)C=C1O] | < 5.00 | < 5.00 | – | –
19 | CC(C(=O)Nc1ccc(SC(F)F)cc1)N1CC=C(c2ccc(O)cc2)CC1 (centres unmarked) [GNF-8208, CC(N1CCC(=CC1)C1=CC=C(O)C=C1)C(=O)NC1=CC=C(SC(F)F)C=C1] | < 5.00 | < 5.00 | 5.10 | –
20 | O=C(CN1CCN(c2ccc(O)cc2)CC1)NCC1(N2CCOCC2)CCCCC1 [GNF-8501, OC1=CC=C(C=C1)N1CCN(CC(=O)NCC2(CCCCC2)N2CCOCC2)CC1] | < 5.00 | < 5.00 | 8.22 | –
21 | Cc1cc(C(=O)COc2ccc(C(=O)O)cc2)c(C)n1CCC1=CCCCC1 [GNF-9057, CC1=CC(C(=O)COC2=CC=C(C=C2)C(O)=O)=C(C)N1CCC1=CCCCC1] | 5.33 | 5.07 | 5.13 | –
22 | O=C(Nc1ccccc1O)C1CCN(C(=O)c2ccc(OCC3CCCO3)cc2)CC1 (centres unmarked) [GNF-9448, OC1=CC=CC=C1NC(=O)C1CCN(CC1)C(=O)C1=CC=C(OCC2CCCO2)C=C1] | 5.15 | 6.03 | 6.05 | –
23 | O=[N+]([O-])c1cc(S(=O)(=O)N2CCCC2)ccc1OCC(O)CNCc1ccc(F)cc1 (centres unmarked) [GNF-9594, OC(CNCC1=CC=C(F)C=C1)COC1=CC=C(C=C1[N+]([O-])=O)S(=O)(=O)N1CCCC1] | < 5.00 | < 5.00 | 5.34 | –
24 | Cc1ccc(-c2nc(SCCCC(=O)N3CCOCC3)[nH]c2-c2ccc(C)cc2)cc1 [GNF-9820, CC1=CC=C(C=C1)C1=C(N=C(N1)SCCCC(=O)N1CCOCC1)C1=CC=C(C)C=C1] | < 5.00 | < 5.00 | 7.92 | –
25 | Cc1cc(C(=O)COC(=O)c2ccc(O)cc2O)c(C)n1Cc1ccc(F)cc1 [GNF-9969, CC1=CC(C(=O)COC(=O)C2=CC=C(O)C=C2O)=C(C)N1CC1=CC=C(F)C=C1] | 5.16 | 6.00 | 5.02 | –
